In PubChem BioAssay (NCI):
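Compound exposure: 48 hours, 5 concentrations, 96-well plates. At the GI50, growth is halved. At the TGI there is no net growth.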

What was measured:
Assay in all cases: NCI anticancer screen, dose series, 48 h
RXF 393 renal = test system: RXF 393 renal
RPMI-8226 leukemia = test system: RPMI-8226 leukemia
SF-268 CNS = test system: SF-268 CNS
A549 NSCLC = test system: A549 NSCLC
HOP-92 NSCLC = test system: HOP-92 NSCLC
HT29 colon = test system: HT29 colon
K-562 leukemia = test system: K-562 leukemia
U251 CNS = test system: U251 CNS
SF-539 CNS = test system: SF-539 CNS
CAKI-1 renal = test system: CAKI-1 renal

SMILES | GI50 (RXF 393 renal) [µM] | TGI (RXF 393 renal) [µM] | GI50 (RPMI-8226 leukemia) [µM] | TGI (RPMI-8226 leukemia) [µM] | GI50 (SF-268 CNS) [µM] | TGI (SF-268 CNS) [µM] | GI50 (A549 NSCLC) [µM] | TGI (A549 NSCLC) [µM] | GI50 (HOP-92 NSCLC) [µM] | TGI (HOP-92 NSCLC) [µM] | GI50 (HT29 colon) [µM] | TGI (HT29 colon) [µM] | GI50 (K-562 leukemia) [µM] | TGI (K-562 leukemia) [µM] | GI50 (U251 CNS) [µM] | TGI (U251 CNS) [µM] | GI50 (SF-539 CNS) [µM] | TGI (SF-539 CNS) [µM] | GI50 (CAKI-1 renal) [µM] | TGI (CAKI-1 renal) [µM]
Cc1ccc2cnc(N)c(C#Cc3cncc(C(=O)Nc4ccc(CN5CCN(C)CC5)c(C(F)(F)F)c4)c3)c2c1 | 0.632 | 1.29 | 0.693 | 1.97 | 0.479 | 1.27 | 0.485 | 1.19 | 0.0771 | 0.446 | 0.106 | 0.724 | 0.005 | 0.619 | 0.59 | 1.21 | 0.275 | 0.877 | 0.627 | 1.27
CC(=O)O[C@H]1C(=O)[C@@]2(C)C(C(OC(=O)c3ccccc3)[C@]3(O)CC(OC(=O)C(O)C(NC(=O)c4ccccc4)c4ccc(C)cc4)C(C)=C1C3(C)C)[C@]1(OC(C)=O)CO[C@@H]1C[C@@H]2O (stereo not given in full) |  | 0.13 |  | 7.56 |  | > 25 |  | 21.5 |  | 11.3 |  | 0.0861 |  | > 25 |  | 0.264 |  | 0.0652 |  | 12.1
c1ccc2c(c1)c1c3n2-c2cc(on2)C3CCC1 (stereo not given) |  | > 100 |  | > 100 |  | > 100 |  | > 100 |  | > 100 |  | > 100 |  | > 100 |  | > 100 |  | > 100 |  | > 100
Cc1nn(-c2ccccn2)c2c1C(SC#N)=C(C=O)CC2 |  | 17.6 |  | 63 |  | 33 |  | 46 |  | 34.5 |  | 47 |  | 39 |  | 28.8 |  | 36.1 |  | 19
COc1cccc(C2CC(=O)c3cccn32)c1 (stereo not given) |  | > 100 |  | > 100 |  | > 100 |  | > 100 |  | > 100 |  | > 100 |  | > 100 |  | > 100 |  | > 100 |  | > 100
O=c1oc2ccccc2c(O)c1Cc1cccc(Cc2c(O)c3ccccc3oc2=O)c1 |  | > 100 |  | > 100 |  | > 100 |  | > 100 |  | > 100 |  | > 100 |  | > 100 |  | > 100 |  | > 100 |  | > 100
COC(=O)C1[C@H](C(=O)OC)C1(Br)CBr (stereo not given in full) |  | > 100 |  | > 100 |  | > 100 |  | > 100 |  | > 100 |  | > 100 |  | > 100 |  | > 100 |  | > 100 |  | > 100
O=S(=O)(O)c1ccc(Nc2ccnc3cc(Cl)ccc23)cc1 |  | > 100 |  | > 100 |  | > 100 |  | > 100 |  | > 100 |  | > 100 |  | > 100 |  | > 100 |  | > 100 |  | > 100
